Experiments:
[1] = biological target: T1, Transient receptor potential cation channel subfamily A member 1 (Homo sapiens, UniProt O75762); assay: Antagonist activity at human TRPA1 channel assessed as inhibition of allyl isothiocyanate-induced intracellular calcium influx; type: functional, cell-based
[2] = biological target: T1, Transient receptor potential cation channel subfamily A member 1; assay: Antagonist activity at human TRPA1 channel assessed as inhibition of 4-hydroxy-2-nonenal-induced response; type: functional
[3] = biological target: T2, Transient receptor potential cation channel subfamily A member 1 (Mus musculus, UniProt Q8BLA8); assay: Activation of mouse TRPA1 channel
[4] = biological target: T2, Transient receptor potential cation channel subfamily A member 1; assay: Antagonist activity at mouse TRPA1 channel expressed in CHO cells assessed as inhibition of cinnamaldehyde-induced intracellular calcium influx
[5] = biological target: T1, Transient receptor potential cation channel subfamily A member 1; assay: Antagonist activity at human TRPA1 channel expressed in CHO cells assessed as inhibition of cinnamaldehyde-induced intracellular calcium influx; type: functional, cell-based
[6] = biological target: Transient receptor potential cation channel subfamily V member 1 (Homo sapiens, UniProt Q8NER1); assay: Antagonist activity at human TRPV1 channel; type: functional
[7] = biological target: Transient receptor potential cation channel subfamily M member 8 (Homo sapiens, UniProt Q7Z2W7); assay: Antagonist activity at human TRPM8 channel; type: functional
[8] = biological target: T1, Transient receptor potential cation channel subfamily A member 1; assay: Antagonist activity at human TRPA1 channel assessed as inhibition of nifedipine-induced intracellular calcium influx; type: functional, cell-based
[9] = biological target: T3, Transient receptor potential cation channel subfamily V member 3 (Homo sapiens, UniProt Q8NET8); assay: Antagonist activity at human TRPV3 channel; type: functional
T3 sequence (Q8NET8 whole entry): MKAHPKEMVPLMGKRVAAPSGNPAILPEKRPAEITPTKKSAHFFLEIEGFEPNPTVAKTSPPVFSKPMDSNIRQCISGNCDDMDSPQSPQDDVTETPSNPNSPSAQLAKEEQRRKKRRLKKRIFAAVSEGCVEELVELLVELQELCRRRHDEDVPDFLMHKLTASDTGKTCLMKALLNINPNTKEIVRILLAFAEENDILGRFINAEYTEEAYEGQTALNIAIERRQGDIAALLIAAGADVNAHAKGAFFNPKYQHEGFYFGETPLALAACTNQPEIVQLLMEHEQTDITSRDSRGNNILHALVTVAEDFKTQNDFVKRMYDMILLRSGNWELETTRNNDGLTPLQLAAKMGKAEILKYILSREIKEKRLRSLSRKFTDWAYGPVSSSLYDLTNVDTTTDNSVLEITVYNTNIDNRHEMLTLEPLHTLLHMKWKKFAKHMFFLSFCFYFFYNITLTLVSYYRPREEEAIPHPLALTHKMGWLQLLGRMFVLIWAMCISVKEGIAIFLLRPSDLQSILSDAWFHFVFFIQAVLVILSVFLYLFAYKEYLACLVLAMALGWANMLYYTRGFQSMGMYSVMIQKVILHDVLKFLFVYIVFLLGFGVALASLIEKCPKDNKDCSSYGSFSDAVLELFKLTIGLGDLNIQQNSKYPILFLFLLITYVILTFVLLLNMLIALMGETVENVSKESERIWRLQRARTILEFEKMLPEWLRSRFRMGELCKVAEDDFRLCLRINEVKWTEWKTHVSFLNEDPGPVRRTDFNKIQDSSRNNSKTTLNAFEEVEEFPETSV

[10] = biological target: Transient receptor potential cation channel subfamily V member 4 (Homo sapiens, UniProt Q9HBA0); assay: Antagonist activity at human TRPV4 channel; type: functional
[11] = biological target: T1, Transient receptor potential cation channel subfamily A member 1; assay: Antagonist activity at human TRPA1 channel assessed as inhibition of formalin-induced intracellular calcium influx; type: functional, cell-based
[12] = biological target: T1, Transient receptor potential cation channel subfamily A member 1; assay: Antagonist activity at human TRPA1 channel expressed in HEK293 cells assessed as inhibition of allyl isothiocyanate-induced intracellular calcium influx by FLIPR; type: functional, cell-based
[13] = biological target: T1, Transient receptor potential cation channel subfamily A member 1; assay: Antagonist activity at human TRPA1 channel expressed in HEK293 cells assessed as inhibition of cinnamaldehyde-induced intracellular calcium influx by FLIPR; type: functional, cell-based

T1 sequence (O75762 whole entry): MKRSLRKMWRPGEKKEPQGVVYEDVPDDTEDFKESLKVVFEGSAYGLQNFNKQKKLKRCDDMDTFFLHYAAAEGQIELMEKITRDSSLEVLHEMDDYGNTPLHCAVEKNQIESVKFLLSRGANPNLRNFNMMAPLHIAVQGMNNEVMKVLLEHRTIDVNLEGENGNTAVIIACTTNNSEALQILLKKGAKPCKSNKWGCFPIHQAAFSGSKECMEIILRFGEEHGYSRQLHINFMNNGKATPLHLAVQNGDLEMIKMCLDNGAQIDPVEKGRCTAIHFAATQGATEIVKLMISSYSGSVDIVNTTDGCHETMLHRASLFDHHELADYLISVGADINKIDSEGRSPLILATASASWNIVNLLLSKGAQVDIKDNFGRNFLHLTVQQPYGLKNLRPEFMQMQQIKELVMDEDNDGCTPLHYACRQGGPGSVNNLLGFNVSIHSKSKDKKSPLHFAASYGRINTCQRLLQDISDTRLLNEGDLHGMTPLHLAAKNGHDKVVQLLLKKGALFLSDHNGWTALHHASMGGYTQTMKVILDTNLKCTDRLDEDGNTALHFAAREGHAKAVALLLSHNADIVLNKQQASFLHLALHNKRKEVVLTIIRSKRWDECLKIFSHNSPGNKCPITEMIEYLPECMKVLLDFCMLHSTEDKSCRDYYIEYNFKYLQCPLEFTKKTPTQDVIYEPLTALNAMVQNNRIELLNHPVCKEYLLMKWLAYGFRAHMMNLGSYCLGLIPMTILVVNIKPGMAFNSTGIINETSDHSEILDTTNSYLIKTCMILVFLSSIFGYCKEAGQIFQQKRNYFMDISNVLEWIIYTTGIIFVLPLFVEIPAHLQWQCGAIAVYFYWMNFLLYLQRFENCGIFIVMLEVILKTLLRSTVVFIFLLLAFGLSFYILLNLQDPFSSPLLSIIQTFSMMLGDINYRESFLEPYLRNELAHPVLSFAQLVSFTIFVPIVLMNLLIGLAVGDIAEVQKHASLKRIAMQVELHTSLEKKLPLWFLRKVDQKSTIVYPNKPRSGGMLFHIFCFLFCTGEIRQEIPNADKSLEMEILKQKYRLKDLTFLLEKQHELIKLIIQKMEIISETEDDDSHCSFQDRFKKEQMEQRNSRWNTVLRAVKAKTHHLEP
T2 sequence (Q8BLA8 whole entry): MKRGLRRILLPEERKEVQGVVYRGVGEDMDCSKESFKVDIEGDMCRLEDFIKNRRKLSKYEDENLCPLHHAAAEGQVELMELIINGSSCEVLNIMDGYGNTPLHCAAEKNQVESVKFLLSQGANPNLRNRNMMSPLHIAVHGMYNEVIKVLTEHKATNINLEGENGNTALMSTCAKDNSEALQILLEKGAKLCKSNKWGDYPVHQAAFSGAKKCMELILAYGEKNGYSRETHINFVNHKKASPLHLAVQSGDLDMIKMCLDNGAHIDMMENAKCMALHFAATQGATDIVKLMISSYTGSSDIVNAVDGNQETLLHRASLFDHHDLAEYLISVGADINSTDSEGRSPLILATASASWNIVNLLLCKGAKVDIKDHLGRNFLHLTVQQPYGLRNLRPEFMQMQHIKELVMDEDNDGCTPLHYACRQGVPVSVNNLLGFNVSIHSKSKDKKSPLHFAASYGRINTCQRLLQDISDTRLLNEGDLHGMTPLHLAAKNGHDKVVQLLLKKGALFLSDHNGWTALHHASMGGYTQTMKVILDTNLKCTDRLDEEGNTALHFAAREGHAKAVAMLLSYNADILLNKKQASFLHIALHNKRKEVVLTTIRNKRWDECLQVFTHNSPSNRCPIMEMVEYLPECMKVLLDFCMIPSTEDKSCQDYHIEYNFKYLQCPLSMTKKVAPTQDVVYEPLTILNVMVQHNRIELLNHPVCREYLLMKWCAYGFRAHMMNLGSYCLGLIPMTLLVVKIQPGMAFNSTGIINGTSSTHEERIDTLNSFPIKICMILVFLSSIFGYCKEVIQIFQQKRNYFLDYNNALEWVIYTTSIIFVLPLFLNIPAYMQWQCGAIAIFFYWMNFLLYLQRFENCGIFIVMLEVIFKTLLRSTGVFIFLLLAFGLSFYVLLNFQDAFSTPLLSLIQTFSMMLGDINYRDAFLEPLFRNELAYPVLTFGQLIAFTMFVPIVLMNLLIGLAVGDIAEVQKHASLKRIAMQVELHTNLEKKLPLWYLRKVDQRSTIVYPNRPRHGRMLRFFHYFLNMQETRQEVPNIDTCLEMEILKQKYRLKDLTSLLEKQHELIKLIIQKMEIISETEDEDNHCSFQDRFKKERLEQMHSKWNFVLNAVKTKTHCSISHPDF
Chain of Transient receptor potential cation channel subfamily V member 1 (Q8NER1 whole entry): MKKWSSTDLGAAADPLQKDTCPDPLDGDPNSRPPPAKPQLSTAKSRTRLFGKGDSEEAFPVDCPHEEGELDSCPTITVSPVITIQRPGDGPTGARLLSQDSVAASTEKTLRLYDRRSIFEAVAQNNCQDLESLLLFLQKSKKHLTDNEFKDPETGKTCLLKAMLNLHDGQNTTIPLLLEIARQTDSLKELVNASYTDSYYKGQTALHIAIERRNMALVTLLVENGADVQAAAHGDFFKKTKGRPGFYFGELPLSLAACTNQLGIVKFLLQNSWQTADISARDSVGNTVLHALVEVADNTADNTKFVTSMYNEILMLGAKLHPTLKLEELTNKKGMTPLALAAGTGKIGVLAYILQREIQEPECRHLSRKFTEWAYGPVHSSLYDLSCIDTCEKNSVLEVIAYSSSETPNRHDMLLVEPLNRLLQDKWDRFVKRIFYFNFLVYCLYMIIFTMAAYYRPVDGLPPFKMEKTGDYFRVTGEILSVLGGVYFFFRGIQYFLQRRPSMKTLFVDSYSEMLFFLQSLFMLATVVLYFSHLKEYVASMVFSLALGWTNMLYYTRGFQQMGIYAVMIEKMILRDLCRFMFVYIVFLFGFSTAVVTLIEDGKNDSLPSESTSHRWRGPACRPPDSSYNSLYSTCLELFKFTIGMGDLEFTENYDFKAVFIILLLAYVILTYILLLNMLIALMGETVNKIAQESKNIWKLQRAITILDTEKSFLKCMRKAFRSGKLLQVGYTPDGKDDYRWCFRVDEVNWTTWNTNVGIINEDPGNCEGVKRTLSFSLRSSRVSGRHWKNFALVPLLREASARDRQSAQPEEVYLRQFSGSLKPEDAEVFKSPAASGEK
Chain of Transient receptor potential cation channel subfamily M member 8 (Q7Z2W7 whole entry): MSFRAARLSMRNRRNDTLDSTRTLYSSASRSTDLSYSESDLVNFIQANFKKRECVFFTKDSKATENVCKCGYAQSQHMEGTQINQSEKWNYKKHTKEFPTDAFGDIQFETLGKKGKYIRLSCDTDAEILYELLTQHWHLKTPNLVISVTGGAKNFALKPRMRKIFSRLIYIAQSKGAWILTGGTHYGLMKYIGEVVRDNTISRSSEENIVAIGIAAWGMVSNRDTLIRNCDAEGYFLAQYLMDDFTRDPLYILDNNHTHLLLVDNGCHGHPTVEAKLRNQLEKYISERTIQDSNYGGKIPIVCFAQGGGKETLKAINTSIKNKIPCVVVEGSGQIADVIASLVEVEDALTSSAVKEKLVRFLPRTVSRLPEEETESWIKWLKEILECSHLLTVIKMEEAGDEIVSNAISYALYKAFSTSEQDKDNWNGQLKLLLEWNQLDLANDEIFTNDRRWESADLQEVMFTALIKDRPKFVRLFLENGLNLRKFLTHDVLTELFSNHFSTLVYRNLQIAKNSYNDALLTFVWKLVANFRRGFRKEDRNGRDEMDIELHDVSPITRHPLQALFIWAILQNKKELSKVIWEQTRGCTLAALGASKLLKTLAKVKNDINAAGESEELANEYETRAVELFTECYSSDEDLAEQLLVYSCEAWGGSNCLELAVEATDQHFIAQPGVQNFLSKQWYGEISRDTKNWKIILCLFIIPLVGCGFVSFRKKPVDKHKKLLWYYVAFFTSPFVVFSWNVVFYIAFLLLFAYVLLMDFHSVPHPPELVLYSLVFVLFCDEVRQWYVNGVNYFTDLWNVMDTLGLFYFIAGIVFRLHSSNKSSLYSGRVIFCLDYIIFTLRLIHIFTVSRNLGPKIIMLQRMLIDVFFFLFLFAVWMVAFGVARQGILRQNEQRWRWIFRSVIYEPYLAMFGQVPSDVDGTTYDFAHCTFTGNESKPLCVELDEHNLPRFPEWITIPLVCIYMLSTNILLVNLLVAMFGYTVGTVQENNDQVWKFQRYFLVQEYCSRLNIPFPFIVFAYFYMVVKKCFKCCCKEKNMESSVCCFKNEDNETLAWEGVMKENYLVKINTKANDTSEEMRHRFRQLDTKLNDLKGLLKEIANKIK
Chain of Transient receptor potential cation channel subfamily V member 4 (Q9HBA0 whole entry): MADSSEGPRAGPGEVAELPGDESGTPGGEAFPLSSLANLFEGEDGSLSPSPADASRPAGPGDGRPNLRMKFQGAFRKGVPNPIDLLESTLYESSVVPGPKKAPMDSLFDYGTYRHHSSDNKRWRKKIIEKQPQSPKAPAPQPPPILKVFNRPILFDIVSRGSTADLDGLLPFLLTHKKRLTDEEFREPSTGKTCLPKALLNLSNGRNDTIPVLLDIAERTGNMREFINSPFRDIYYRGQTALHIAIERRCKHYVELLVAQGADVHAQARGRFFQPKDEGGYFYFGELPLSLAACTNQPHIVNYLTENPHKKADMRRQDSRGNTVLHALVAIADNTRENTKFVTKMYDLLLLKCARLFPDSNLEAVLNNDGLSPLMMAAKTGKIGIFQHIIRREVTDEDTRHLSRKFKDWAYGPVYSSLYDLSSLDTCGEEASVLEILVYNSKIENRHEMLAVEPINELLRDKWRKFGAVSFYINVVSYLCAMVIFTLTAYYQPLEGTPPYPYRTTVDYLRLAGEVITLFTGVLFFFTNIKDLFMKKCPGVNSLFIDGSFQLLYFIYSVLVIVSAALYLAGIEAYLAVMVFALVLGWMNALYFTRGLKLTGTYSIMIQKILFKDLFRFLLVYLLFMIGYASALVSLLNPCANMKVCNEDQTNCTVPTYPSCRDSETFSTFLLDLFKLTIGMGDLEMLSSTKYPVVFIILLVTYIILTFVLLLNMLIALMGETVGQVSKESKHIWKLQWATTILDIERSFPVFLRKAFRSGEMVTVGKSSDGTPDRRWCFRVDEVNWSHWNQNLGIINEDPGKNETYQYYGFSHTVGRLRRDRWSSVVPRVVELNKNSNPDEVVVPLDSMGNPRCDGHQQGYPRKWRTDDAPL

| Compound | IC50 [1] | IC50 [2] | EC50 [3] | IC50 [4] | IC50 [5] | IC50 [6] | IC50 [7] | IC50 [8] | IC50 [9] | IC50 [10] | IC50 [11] | IC50 [12] | IC50 [13] |
| --- | --- | --- | --- | --- | --- | --- | --- | --- | --- | --- | --- | --- | --- |
| CCC(C)c1ccc(NC(=O)Cn2cnc3c2c(=O)n(C)c(=O)n3C)cc1 (stereo not given) | 14.3 µM | 18.7 µM | 2500 µM |  |  |  |  |  |  |  |  |  |  |
| CC(=C\c1ccc(Cl)cc1)/C(C)=N/O [AP18 5] |  |  |  | 4.5 µM | 3.1 µM |  |  |  |  |  |  |  |  |
| CC(C)c1ccc(NC(=O)Cn2cnc3c2c(=O)n(C)c(=O)n3C)cc1 | 6.2 µM |  | 1000 µM |  |  | > 20 µM | > 30 µM | 1.8 µM | > 10 µM | > 10 µM | 5.3 µM | 7.5 µM | 4.9 µM |

From ChEMBL document CHEMBL1155439, “Transient receptor potential ankyrin 1 (TRPA1) channel as emerging target for novel analgesics and anti-inflammatory agents” (J Med Chem, 2010)
